Experimental data taken from patent US9127291B2, “Methods and products for biasing cellular development” (University of Central Florida Research Foundation, Inc., priority 2004, dated 2015).

System: multipotent stem cells
Experiment: Nkx2-5-transfected multipotent stem cells cocultured with rat cardiomyocytes
Assay type: cell-based, human
Details: coculture with rat cardiomyocytes
Description: Red=human specific Troponin I, Green=Human cells. Following transfection, multipotent stem cells were cocultured with rat cardiomyocytes that provide environmental signals to allow the transfected cells to develop properly.

## Nkx2-5: developmental control gene Nkx2-5 (SEQ ID NO: 12) transfected into multipotent stem cells (DNA TGCTGGCATGTCCGCTGTCT; listed as DNA, chemistry not given here)
  biasing of differentiation (human specific Troponin I staining): biases the differentiation toward the development of cardiac cells
